Patent US8952128B2, “Somatostatin-dopamine chimeric analogs” (priority 2012, dated 2015)
Bridge positions count the residues as written; N and C are the ends. Square brackets hold non-standard residues; d marks the D form. Peptide text beside a SMILES is read from it. * marks the point of attachment. X2 = CN1C[C@H](CSCC(=O)*)C[C@@H]2c3cccc4[nH]cc(c34)C[C@H]21; 4Pal = N[C@@H](Cc1ccncc1)C(=O)O

biological target: hSSTR2 (Homo sapiens (Human), UniProt P30874); assay: Intracellular calcium mobilization assay (FLIPR Calcium 4), hSSTR2; format: cell-based; details: Student's t-test, one-tailed, p <0.05;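 also: agonist activity read as intracellular calcium rise in cells expressing human SSTR2, loaded with a calcium-sensitive dye for 60 min at 37 °C, measured by FLIPR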
Sequence (P30874 whole entry): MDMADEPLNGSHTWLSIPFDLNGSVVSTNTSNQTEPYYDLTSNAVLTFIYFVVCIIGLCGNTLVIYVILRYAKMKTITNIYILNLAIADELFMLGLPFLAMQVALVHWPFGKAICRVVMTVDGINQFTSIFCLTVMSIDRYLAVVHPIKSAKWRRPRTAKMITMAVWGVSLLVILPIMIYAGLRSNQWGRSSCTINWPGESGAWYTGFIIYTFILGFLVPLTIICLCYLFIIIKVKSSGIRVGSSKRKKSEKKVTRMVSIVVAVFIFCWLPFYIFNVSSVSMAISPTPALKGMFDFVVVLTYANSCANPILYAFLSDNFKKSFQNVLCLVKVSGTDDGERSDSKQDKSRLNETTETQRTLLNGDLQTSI

**Q.** `C[C@@H](O)[C@@H]1NC(=O)[C@H](CCCCN)NC(=O)[C@@H](Cc2c[nH]c3ccccc23)NC(=O)[C@H](Cc2ccncc2)NC(=O)[C@H](Cc2ccccc2)NC(=O)[C@H](CCCNC(=N)N)NC(=O)[C@H](NCCSC[C@@H]2C[C@@H]3c4cccc5[nH]cc(c45)C[C@H]3N(C)C2)CCCCNC(=O)[C@H](Cc2ccccc2)NC1=O` [Compound 23, Dop1-psi(CH2NH)-cyclo(DLys-Arg-Phe-4Pal-DTrp-Lys-Thr-Phe)] was tested. Which “improvement in EC50 over Reference Compound A” value did it give?
**A.** Its value is “statistically significant improvement”.

**Q.** `C[C@@H](O)[C@@H]1NC(=O)[C@H](CCCCN)NC(=O)[C@@H](Cc2c[nH]c3ccccc23)NC(=O)[C@H](Cc2ccncc2)NC(=O)[C@H](Cc2ccccc2)NC(=O)[C@H](CCCNC(=N)N)NC(=O)[C@H](NC(=O)CSC[C@@H]2C[C@@H]3c4cccc5[nH]cc(c45)C[C@H]3N(C)C2)CCCCNC(=O)[C@H](Cc2ccc(O)cc2)NC1=O` [Compound 25, Dop1-cyclo(DLys-Arg-Phe-4Pal-DTrp-Lys-Thr-Tyr)] (X2-[dK]RF[4Pal][dW]KTY; lactam 1-C) was tested. Which “improvement in EC50 over Reference Compound A” value did it give?
**A.** The value was “statistically significant improvement”.

same assay, conditions: read-out: hSSTR2 % Emax ± SEM

**Q.** `C[C@@H](O)[C@@H]1NC(=O)[C@H](CCCCN)NC(=O)[C@@H](Cc2c[nH]c3ccccc23)NC(=O)[C@H](Cc2ccccc2)NC(=O)[C@H](Cc2ccccc2)NC(=O)[C@H](CCCNC(=N)N)NC(=O)[C@H](NCCCC[C@@H]2C[C@@H]3c4cccc5[nH]cc(c45)C[C@H]3N(C)C2)CCCCNC(=O)[C@H](Cc2ccc(F)cc2)NC1=O` [Compound 2, (D-6-methyl-8β-ergolinyl)-butanoyl-psi(CH2NH)-cyclo(DLys-Arg-Phe-Phe-DTrp-Lys-Thr-4FPhe)] was tested. Which Emax did it give?
**A.** The Emax was 100 ± 1.7%.

**Q.** With `C[C@@H](O)[C@@H]1NC(=O)[C@H](CCCCN)NC(=O)[C@@H](Cc2c[nH]c3ccccc23)NC(=O)[C@H](Cc2ccccc2)NC(=O)[C@H](Cc2ccccc2)NC(=O)[C@H](CCCNC(=N)N)NC(=O)[C@H](NCCCCC[C@@H]2C[C@@H]3c4cccc5[nH]cc(c45)C[C@H]3N(C)C2)CCCCNC(=O)[C@H](Cc2ccc(F)cc2)NC1=O` [Compound 3, (D-6-methyl-8β-ergolinyl)-pentanoyl-psi(CH2NH)-cyclo(DLys-Arg-Phe-Phe-DTrp-Lys-Thr-4FPhe)] as the molecule, how does the Emax read?
**A.** Its Emax is 98.8 ± 19.2%.

**Q.** For `C[C@@H](O)[C@@H]1NC(=O)[C@H](CCCCN)NC(=O)[C@@H](Cc2c[nH]c3ccccc23)NC(=O)[C@H](Cc2ccccc2)NC(=O)[C@H](Cc2ccccc2)NC(=O)[C@H](CCCNC(=N)N)NC(=O)[C@H](NCCSC[C@@H]2C[C@@H]3c4cccc5[nH]cc(c45)C[C@H]3N(C)C2)CCCCNC(=O)[C@H](Cc2ccc(F)c(F)c2)NC1=O` [Compound 6A, Dop1-psi(CH2NH)-cyclo(DLys-Arg-Phe-Phe-DTrp-Lys-Thr-3,4FPhe)], which Emax is on record?
**A.** The Emax was 99.5 ± 2.6%.

**Q.** For `C[C@@H](O)[C@@H]1NC(=O)[C@H](CCCCN)NC(=O)[C@@H](Cc2c[nH]c3ccccc23)NC(=O)[C@H](Cc2ccccc2)NC(=O)[C@H](Cc2ccccc2)NC(=O)[C@H](CCCNC(=N)N)NC(=O)[C@H](NCCSC[C@@H]2C[C@@H]3c4cccc5[nH]cc(c45)C[C@H]3N(C)C2)CCCCNC(=O)[C@H](Cc2cc(F)cc(F)c2)NC1=O` [Compound 6B, Dop1-psi(CH2NH)-cyclo(DLys-Arg-Phe-Phe-DTrp-Lys-Thr-3,5FPhe)], which Emax is on record?
**A.** The Emax was 95.2 ± 6.8%.

**Q.** `C[C@@H](O)[C@@H]1NC(=O)[C@H](CCCCN)NC(=O)[C@@H](Cc2c[nH]c3ccccc23)NC(=O)[C@H](Cc2ccccc2)NC(=O)[C@H](Cc2ccccc2)NC(=O)[C@H](CCCNC(=N)N)NC(=O)[C@H](NCCSC[C@@H]2C[C@@H]3c4cccc5[nH]cc(c45)C[C@H]3N(C)C2)CCCCNC(=O)[C@H](Cc2cccc(F)c2)NC1=O` [Compound 6C, Dop1-psi(CH2NH)-cyclo(DLys-Arg-Phe-Phe-DTrp-Lys-Thr-3FPhe)] was tested. Which Emax did it give?
**A.** The Emax was 97.7 ± 6.9%.

**Q.** For `C[C@@H](O)[C@@H]1NC(=O)[C@H](CCCCN)NC(=O)[C@@H](Cc2c[nH]c3ccccc23)NC(=O)[C@H](Cc2ccccc2)NC(=O)[C@H](Cc2ccccc2)NC(=O)[C@H](CCCNC(=N)N)NC(=O)[C@H](NCCSC[C@@H]2C[C@@H]3c4cccc5[nH]cc(c45)C[C@H]3N(C)C2)CCCCNC(=O)[C@H](Cc2ccccc2F)NC1=O` [Compound 6D, Dop1-psi(CH2NH)-cyclo(DLys-Arg-Phe-Phe-DTrp-Lys-Thr-2FPhe)], which Emax is on record?
**A.** Its Emax is 96.9 ± 8.7%.

**Q.** `C[C@@H](O)[C@@H]1NC(=O)[C@H](CCCCN)NC(=O)[C@@H](Cc2c[nH]c3ccccc23)NC(=O)[C@H](Cc2ccccc2)NC(=O)[C@H](Cc2ccccc2)NC(=O)[C@H](CCCNC(=N)N)NC(=O)[C@H](NCCSC[C@@H]2C[C@@H]3c4cccc5[nH]cc(c45)C[C@H]3N(C)C2)CCCCNC(=O)[C@H](Cc2c(F)c(F)c(F)c(F)c2F)NC1=O` [Compound 6E, Dop1-psi(CH2NH)-cyclo(DLys-Arg-Phe-Phe-DTrp-Lys-Thr-2,3,4,5,6FPhe)] was tested. Which Emax did it give?
**A.** The Emax was 90.4 ± 6.8%.

**Q.** How did the Emax turn out when `C[C@@H](O)[C@@H]1NC(=O)[C@H](CCCCN)NC(=O)[C@@H](Cc2c[nH]c3ccccc23)NC(=O)[C@H](Cc2ccccc2)NC(=O)[C@H](Cc2ccccc2)NC(=O)[C@H](CCCNC(=N)N)NC(=O)[C@H](NC[C@H](Cc2ccc(O)cc2)NC(=O)C[S+]([O-])C[C@@H]2C[C@@H]3c4cccc5[nH]cc(c45)C[C@H]3N(C)C2)CCCCNC(=O)[C@H](Cc2ccc(F)cc2)NC1=O` (stereo partly drawn) [Compound 13, Dop1(SO)-Tyr-psi(CH2NH)-cyclo(DLys-Arg-Phe-Phe-DTrp-Lys-Thr-4FPhe)] was run?
**A.** Its Emax is 100 ± 0.7%.

**Q.** For `C[C@@H](O)[C@@H]1NC(=O)[C@H](CCCCN)NC(=O)[C@@H](Cc2c[nH]c3ccccc23)NC(=O)[C@H](Cc2ccccc2)NC(=O)[C@H](Cc2ccccc2)NC(=O)[C@H](CCCNC(=N)N)NC(=O)[C@H](NCC[S+]([O-])C[C@@H]2C[C@@H]3c4cccc5[nH]cc(c45)C[C@H]3N(C)C2)CCCCNC(=O)[C@H](Cc2ccc(F)cc2)NC1=O` (stereo partly drawn) [Compound 14, Dop1(SO)-psi(CH2NH)-cyclo(DLys-Arg-Phe-Phe-DTrp-Lys-Thr-4FPhe)], which Emax is on record?
**A.** Its Emax is 102 ± 2.2%.

**Q.** Which Emax does the source give for `C[C@@H](O)[C@@H]1NC(=O)[C@H](CCCCN)NC(=O)[C@@H](Cc2c[nH]c3ccccc23)NC(=O)[C@H](Cc2ccncc2)NC(=O)[C@H](Cc2ccccc2)NC(=O)[C@H](CCCNC(=N)N)NC(=O)[C@H](NC[C@H](Cc2ccc(O)cc2)NC(=O)C[S+]([O-])C[C@@H]2C[C@@H]3c4cccc5[nH]cc(c45)C[C@H]3N(C)C2)CCCCNC(=O)[C@H](Cc2ccccc2)NC1=O` (stereo partly drawn) [Compound 15, Dop1(SO)-Tyr-psi(CH2NH)-cyclo(DLys-Arg-Phe-4Pal-DTrp-Lys-Thr-Phe)] here?
**A.** Its Emax is 99.9 ± 1.9%.

**Q.** With `C[C@@H](O)[C@@H]1NC(=O)[C@H](CCCCN)NC(=O)[C@@H](Cc2c[nH]c3ccccc23)NC(=O)[C@H](Cc2ccncc2)NC(=O)[C@H](Cc2ccccc2)NC(=O)[C@H](CCCNC(=N)N)NC(=O)[C@H](NC[C@H](CCCCNC(=O)C[S+]([O-])C[C@@H]2C[C@@H]3c4cccc5[nH]cc(c45)C[C@H]3N(C)C2)NC(=O)C[S+]([O-])C[C@@H]2C[C@@H]3c4cccc5[nH]cc(c45)C[C@H]3N(C)C2)CCCCNC(=O)[C@H](Cc2ccc(O)cc2)NC1=O` (stereo partly drawn) [Compound 16, Dop1(SO)-Lys[Dop1(SO)]-psi(CH2NH)-cyclo(DLys-Arg-Phe-4Pal-DTrp-Lys-Thr-Tyr)] as the molecule, how does the Emax read?
**A.** Its Emax is 103 ± 2.3%.

**Q.** With `C[C@@H](O)[C@@H]1NC(=O)[C@H](CCCCN)NC(=O)[C@@H](Cc2c[nH]c3ccccc23)NC(=O)[C@H](Cc2ccncc2)NC(=O)[C@H](Cc2ccccc2)NC(=O)[C@H](CCCNC(=N)N)NC(=O)[C@H](NC[C@H](CCCCNC(=O)C[S+]([O-])C[C@@H]2C[C@@H]3c4cccc5[nH]cc(c45)C[C@H]3N(C)C2)NC(=O)C[S+]([O-])C[C@@H]2C[C@@H]3c4cccc5[nH]cc(c45)C[C@H]3N(C)C2)CCCCNC(=O)[C@H](Cc2ccccc2)NC1=O` (stereo partly drawn) [Compound 17, Dop1(SO)-Lys[Dop1(SO)]-psi(CH2NH)-cyclo(DLys-Arg-Phe-4Pal-DTrp-Lys-Thr-Phe)] as the molecule, how does the Emax read?
**A.** The Emax was 105 ± 4.2%.

**Q.** Which Emax does the source give for `C[C@@H](O)[C@@H]1NC(=O)[C@H](CCCCN)NC(=O)[C@@H](Cc2c[nH]c3ccccc23)NC(=O)[C@H](Cc2ccccc2)NC(=O)[C@H](Cc2ccccc2)NC(=O)[C@H](CCCNC(=N)N)NC(=O)[C@H](NC[C@H](Cc2ccc(O)cc2)NC(=O)CS(=O)(=O)C[C@@H]2C[C@@H]3c4cccc5[nH]cc(c45)C[C@H]3N(C)C2)CCCCNC(=O)[C@H](Cc2ccc(F)cc2)NC1=O` [Compound 19, Dop1(SO2)-Tyr-psi(CH2NH)-cyclo(DLys-Arg-Phe-Phe-DTrp-Lys-Thr-4FPhe)] here?
**A.** Its Emax is 99.5 ± 1.8%.

**Q.** With `C[C@@H](O)[C@@H]1NC(=O)[C@H](CCCCN)NC(=O)[C@@H](Cc2c[nH]c3ccccc23)NC(=O)[C@H](Cc2ccncc2)NC(=O)[C@H](Cc2ccccc2)NC(=O)[C@H](CCCNC(=N)N)NC(=O)[C@H](NC[C@H](Cc2ccc(O)cc2)NC(=O)CS(=O)(=O)C[C@@H]2C[C@@H]3c4cccc5[nH]cc(c45)C[C@H]3N(C)C2)CCCCNC(=O)[C@H](Cc2ccccc2)NC1=O` [Compound 21, Dop1(SO2)-Tyr-psi(CH2NH)-cyclo(DLys-Arg-Phe-4Pal-DTrp-Lys-Thr-Phe)] as the molecule, how does the Emax read?
**A.** The Emax was 100 ± 1.8%.

**Q.** How did the Emax turn out when `CC(=O)N(CCCNC[C@@H]1C[C@@H]2c3cccc4[nH]cc(c34)C[C@H]2N(C)C1)[C@@H]1CCCCNC(=O)[C@H](Cc2ccc(F)cc2)NC(=O)[C@H]([C@@H](C)O)NC(=O)[C@H](CCCCN)NC(=O)[C@@H](Cc2c[nH]c3ccccc23)NC(=O)[C@H](Cc2ccccc2)NC(=O)[C@H](Cc2ccccc2)NC(=O)[C@H](CCCNC(=N)N)NC1=O` [Compound 22, 3-[N-(D-6-methyl-8β-ergolinylmethyl)]-aminopropionyl-psi(CH2NAc)-cyclo(DLys-Arg-Phe-Phe-DTrp-Lys-Thr-4FPhe)] was run?
**A.** Its Emax is 99.1 ± 12.6%.

**Q.** For `C[C@@H](O)[C@@H]1NC(=O)[C@H](CCCCN)NC(=O)[C@@H](Cc2c[nH]c3ccccc23)NC(=O)[C@H](Cc2ccncc2)NC(=O)[C@H](Cc2ccccc2)NC(=O)[C@H](CCCNC(=N)N)NC(=O)[C@H](NCCSC[C@@H]2C[C@@H]3c4cccc5[nH]cc(c45)C[C@H]3N(C)C2)CCCCNC(=O)[C@H](Cc2ccccc2)NC1=O` [Compound 23, Dop1-psi(CH2NH)-cyclo(DLys-Arg-Phe-4Pal-DTrp-Lys-Thr-Phe)], which Emax is on record?
**A.** Its Emax is 95.4 ± 3.3%.

**Q.** How did the Emax turn out when `C[C@@H](O)[C@@H]1NC(=O)[C@H](CCCCN)NC(=O)[C@@H](Cc2c[nH]c3ccccc23)NC(=O)[C@H](Cc2ccncc2)NC(=O)[C@H](Cc2ccccc2)NC(=O)[C@H](CCCNC(=N)N)NC(=O)[C@H](NC(=O)CSC[C@@H]2C[C@@H]3c4cccc5[nH]cc(c45)C[C@H]3N(C)C2)CCCCNC(=O)[C@H](Cc2ccc(O)cc2)NC1=O` [Compound 25, Dop1-cyclo(DLys-Arg-Phe-4Pal-DTrp-Lys-Thr-Tyr)] (X2-[dK]RF[4Pal][dW]KTY; lactam 1-C) was run?
**A.** Its Emax is 93.9 ± 6.7%.

**Q.** With `C[C@@H](O)[C@@H]1NC(=O)[C@H](CCCCN)NC(=O)[C@@H](Cc2c[nH]c3ccccc23)NC(=O)[C@H](Cc2ccccc2)NC(=O)[C@H](Cc2ccccc2)NC(=O)[C@H](CCCNC(=N)N)NC(=O)[C@H](NCCSC[C@@H]2C[C@@H]3c4cccc5[nH]cc(c45)C[C@H]3N(C)C2)CCCCNC(=O)[C@H](Cc2ccccc2)NC1=O` [Compound 26, Dop1-psi(CH2NH)-cyclo(DLys-Arg-Phe-Phe-DTrp-Lys-Thr-Phe)] as the molecule, how does the Emax read?
**A.** Its Emax is 90.2 ± 12.6%.
